# According to patent US8927717B1, “Thiochromeno[2,3-c]quinolin-12-one derivatives, preparation method and application thereof” (National Defense Medical Center, priority 2014, dated 2015):
# How the values were obtained:
# Assay type in all cases: cell-based
# [1] = tested on: HL-60(TB)
# [2] = tested on: K-562
# [3] = tested on: MOLT-4
# [4] = tested on: RPMI-8226
# [5] = tested on: SR
# [6] = tested on: HOP-62
# [7] = tested on: NCI-H226
# [8] = tested on: NCI-H23; details: Non-small cell lung cancer; 10^−5 molar; 48 hours; SRB
# [9] = tested on: NCI-H460
# [10] = tested on: NCI-H522
# [11] = tested on: COLO 205
# [12] = tested on: HCT-116
# [13] = tested on: HT29
# [14] = tested on: KM12; experiment: cells
# [15] = tested on: SW-620
# [16] = tested on: SF-268
# [17] = tested on: SNB-19
# [18] = tested on: U251
# [19] = tested on: LOX IMVI
# [20] = tested on: MALME-3M; details: Melanoma; 10^−5 molar; 48 hours; SRB
# [21] = tested on: M14
# [22] = tested on: MDA-MB-435
# [23] = tested on: SK-MEL-28
# [24] = tested on: SK-MEL-5
# [25] = tested on: UACC-62
# [26] = tested on: OVCAR-8
# [27] = tested on: NCI/ADR-RES
# [28] = tested on: SK-OV-3
# [29] = tested on: 786-0
# [30] = tested on: A498
# [31] = tested on: ACHN
# [32] = tested on: RXF 393
# [33] = tested on: TK-10
# [34] = tested on: PC-3
# [35] = tested on: MCF7
# [36] = tested on: MDA-MB-231/ATCC
# [37] = tested on: T-47D; details: Breast cancer; 10^−5 molar; 48 hours; SRB
# [38] = tested on: MDA-MB-486
# [39] = tested on: 60 cancer cell lines; experiment: NCI 60-cell screen, SRB, whole panel (mean, delta, range)
# [40] = Leukemia, 10^−5 molar, 48 hours, SRB
# [41] = Homo sapiens, HOP-62, five dose
# [42] = Non-small cell lung cancer, 10^−5 molar, 48 hours, SRB
# [43] = Homo sapiens, NCI-H226, five dose
# [44] = Homo sapiens, NCI-H460, five dose
# [45] = Homo sapiens, NCI-H522, five dose
# [46] = Colon cancer, 10^−5 molar, 48 hours, SRB
# [47] = Homo sapiens, COLO 205, five dose
# [48] = Homo sapiens, HCT-116, five dose
# [49] = Homo sapiens, HT-29, HT29, five dose
# [50] = Homo sapiens, SW-620, five dose
# [51] = CNS cancer, 10^−5 molar, 48 hours, SRB
# [52] = Homo sapiens, SNB-19, five dose
# [53] = Homo sapiens, U-251, U251, five dose
# [54] = Homo sapiens, LOX IMVI, five dose
# [55] = Melanoma, 10^−5 molar, 48 hours, SRB
# [56] = Homo sapiens, SK-MEL-28, five dose
# [57] = Ovarian cancer, 10^−5 molar, 48 hours, SRB
# [58] = Renal cancer, 10^−5 molar, 48 hours, SRB
# [59] = Breast cancer, 10^−5 molar, 48 hours, SRB
compound,measurement,setting,value
"CCNc1nc2ccccc2c2c(=O)c3cc(Cl)ccc3sc12 [Compound N2, 10-Chloro-6-ethylamino-12H-thiochromeno[2,3-c]quinolin-12-one]",TGI,"[1]; HL-60(TB), five dose",>100 µM
same,GI50,"[1]; Homo sapiens, HL-60(TB), five dose",> 100 µM
same,CC50,"[1]; Homo sapiens, HL-60(TB), five dose, read-out: LC50 (the source's name)",> 100 µM
same,Growth percent HL-60(TB),[1]; [40],103.33%
same,GI50,"[2]; Homo sapiens, K562, K-562, five dose",> 100 µM
same,CC50,"[2]; Homo sapiens, K562, K-562, five dose, read-out: LC50 (the source's name)",> 100 µM
same,TGI,"[2]; K-562, five dose",>100 µM
same,Growth percent K-562,[2]; [40],77.52%
same,GI50,"[3]; Homo sapiens, MOLT-4, five dose",> 100 µM
same,CC50,"[3]; Homo sapiens, MOLT-4, five dose, read-out: LC50 (the source's name)",> 100 µM
same,Growth percent MOLT-4,[3]; [40],92.27%
same,TGI,"[3]; MOLT-4, five dose",>100 µM
same,GI50,"[4]; Homo sapiens, RPMI-8226, five dose",> 100 µM
same,CC50,"[4]; Homo sapiens, RPMI-8226, five dose, read-out: LC50 (the source's name)",> 100 µM
same,Growth percent RPMI-8226,[4]; [40],79.66%
same,TGI,"[4]; RPMI-8226, five dose",>100 µM
same,GI50,"[5]; Homo sapiens, SR, five dose",> 100 µM
same,LC50 (50% lethal concentration),"[5]; Homo sapiens, SR, five dose",> 100 µM
same,Growth percent SR,[5]; [40],84.32%
same,TGI,"[5]; SR, five dose",>100 µM
same,TGI,"[6]; HOP-62, five dose",35.20 µM
same,GI50,[6]; [41],13.3 µM
same,LC50 (lethal concentration 50),[6]; [41],93.1 µM
same,Growth percent HOP-62,[6]; [42],57.49%
same,GI50,[7]; [43],33.2 µM
same,LC50 (concentration giving 50% net cell kill),[7]; [43],> 100 µM
same,TGI,"[7]; NCI-H226, five dose",>100 µM
same,Growth percent NCI-H226,[7]; [42],41.31%
same,Growth percent NCI-H23,[8],86.29%
same,GI50,[9]; [44],> 100 µM
same,LC50,[9]; [44],> 100 µM
same,TGI,"[9]; NCI-H460, five dose",>100 µM
same,Growth percent NCI-H460,[9]; [42],53.33%
same,GI50,[10]; [45],24.8 µM
same,LC50 (concentration causing 50% net cell kill),[10]; [45],> 100 µM
same,TGI,"[10]; NCI-H522, five dose",>100 µM
same,Growth percent NCI-H522,[10]; [42],80.75%
same,TGI,"[11]; COLO 205, five dose",>100 µM
same,Growth percent COLO 205,[11]; [46],82.36%
same,GI50,[11]; [47],> 100 µM
same,LC50,[11]; [47],> 100 µM
same,Growth percent HCT-116,[12]; [46],48.13%
same,TGI,"[12]; HCT-116, five dose",>100 µM
same,GI50,[12]; [48],6.31 µM
same,LC50 (concentration killing 50% of cells),[12]; [48],> 100 µM
same,Growth percent HT29,[13]; [46],68.21%
same,TGI,"[13]; HT29, five dose",>100 µM
same,GI50,[13]; [49],> 100 µM
same,LC50 (concentration killing 50% of cells),[13]; [49],> 100 µM
same,Growth percent KM12,[14]; [46],85.79%
same,GI50,"[14]; Homo sapiens, KM12, five dose",> 100 µM
same,LC50,"[14]; Homo sapiens, KM12, five dose",> 100 µM
same,TGI,"[14]; KM12, five dose",>100 µM
same,Growth percent SW-620,[15]; [46],84.65%
same,GI50,[15]; [50],> 100 µM
same,LC50,[15]; [50],> 100 µM
same,TGI,"[15]; SW-620, five dose",>100 µM
same,Growth percent SF-268,[16]; [51],78.23%
same,GI50,"[16]; Homo sapiens, SF-268, five dose",22.1 µM
same,CC50,"[16]; Homo sapiens, SF-268, five dose, read-out: LC50 (the source's name)",> 100 µM
same,TGI,"[16]; SF-268, five dose",>100 µM
same,Growth percent SNB-19,[17]; [51],84.19%
same,GI50,[17]; [52],26.6 µM
same,LC50 (concentration killing 50% of cells),[17]; [52],> 100 µM
same,TGI,"[17]; SNB-19, five dose",81.10 µM
same,Growth percent U251,[18]; [51],76.58%
same,GI50,[18]; [53],16.9 µM
same,LC50,[18]; [53],> 100 µM
same,TGI,"[18]; U251, five dose",67.90 µM
same,GI50,[19]; [54],> 100 µM
same,LC50,[19]; [54],> 100 µM
same,TGI,"[19]; LOX IMVI, five dose",>100 µM
same,Growth percent LOX IMVI,[19]; [55],80.61%
same,Growth percent MALME-3M,[20],77.31%
same,GI50,"[21]; Homo sapiens, M14, five dose",> 100 µM
same,LC50,"[21]; Homo sapiens, M14, five dose",> 100 µM
same,TGI,"[21]; M14, five dose",>100 µM
same,Growth percent M14,[21]; [55],91.72%
same,GI50,"[22]; Homo sapiens, MDA-MB-435, five dose",> 100 µM
same,CC50,"[22]; Homo sapiens, MDA-MB-435, five dose, read-out: LC50 (the source's name)",> 100 µM
same,TGI,"[22]; MDA-MB-435, five dose",>100 µM
same,Growth percent MDA-MB-435,[22]; [55],80.67%
same,GI50,[23]; [56],> 100 µM
same,LC50,[23]; [56],> 100 µM
same,Growth percent SK-MEL-28,[23]; [55],93.07%
same,TGI,"[23]; SK-MEL-28, five dose",>100 µM
same,LC50,"[24]; Homo sapiens, SK-MEL-5, five dose",> 100 µM
same,Growth percent SK-MEL-5,[24]; [55],73.99%
same,TGI,"[24]; SK-MEL-5, five dose",>100 µM
same,GI50,"[25]; Homo sapiens, UACC-62, five dose",22.3 µM
same,CC50,"[25]; Homo sapiens, UACC-62, five dose, read-out: LC50 (the source's name)",> 100 µM
same,Growth percent UACC-62,[25]; [55],69.06%
same,TGI,"[25]; UACC-62, five dose",>100 µM
same,GI50,"[26]; Homo sapiens, OVCAR-8, five dose",17.7 µM
same,CC50,"[26]; Homo sapiens, OVCAR-8, five dose, read-out: LC50 (the source's name)",> 100 µM
same,TGI,"[26]; OVCAR-8, five dose",>100 µM
same,Growth percent OVCAR-8,[26]; [57],62.54%
same,GI50,"[27]; Homo sapiens, NCI/ADR-RES, five dose",33.5 µM
same,CC50,"[27]; Homo sapiens, NCI/ADR-RES, five dose, read-out: LC50 (the source's name)",> 100 µM
same,TGI,"[27]; NCI/ADR-RES, five dose",>100 µM
same,Growth percent NCI/ADR-RES,[27]; [57],88.61%
same,GI50,"[28]; Homo sapiens, SK-OV-3, five dose",11.1 µM
same,CC50,"[28]; Homo sapiens, SK-OV-3, five dose, read-out: LC50 (the source's name)",> 100 µM
same,Growth percent SK-OV-3,[28]; [57],28.90%
same,TGI,"[28]; SK-OV-3, five dose",35.20 µM
same,TGI,"[29]; 786-0, five dose",33.8 µM
same,GI50,"[29]; Homo sapiens, 786-0, five dose",10.5 µM
same,CC50,"[29]; Homo sapiens, 786-0, five dose, read-out: LC50 (the source's name)",> 100 µM
same,Growth percent 786-0,[29]; [58],23.87%
same,TGI,"[30]; A498, five dose",91.3 µM
same,GI50,"[30]; Homo sapiens, A498, five dose",15.3 µM
same,CC50,"[30]; Homo sapiens, A498, five dose, read-out: LC50 (the source's name)",> 100 µM
same,Growth percent A498,[30]; [58],61.02%
same,TGI,"[31]; ACHN, five dose",>100 µM
same,GI50,"[31]; Homo sapiens, ACHN, five dose",8.66 µM
same,CC50,"[31]; Homo sapiens, ACHN, five dose, read-out: LC50 (the source's name)",> 100 µM
same,Growth percent ACHN,[31]; [58],43.77%
same,GI50,"[32]; Homo sapiens, RXF 393, five dose",13.1 µM
same,CC50,"[32]; Homo sapiens, RXF 393, five dose, read-out: LC50 (the source's name)",> 100 µM
same,TGI,"[32]; RXF 393, five dose",44.6 µM
same,Growth percent RXF 393,[32]; [58],34.56%
same,CC50,"[33]; Homo sapiens, TK-10, five dose, read-out: LC50 (the source's name)",> 100 µM
same,Growth percent TK-10,[33]; [58],47.11%
same,GI50,"[34]; Homo sapiens, PC-3, five dose",> 100 µM
same,CC50,"[34]; Homo sapiens, PC-3, five dose, read-out: LC50 (the source's name)",> 100 µM
same,TGI,"[34]; PC-3, five dose",>100 µM
same,Growth percent PC-3,"[34]; Prostate cancer, 10^−5 molar, 48 hours, SRB",77.80%
same,Growth percent MCF7 (Table 2: MCF),[35]; [59],17.54%
same,CC50,"[35]; Homo sapiens, MCF7, five dose, read-out: LC50 (the source's name)",> 100 µM
same,TGI,"[35]; MCF7, five dose",>100 µM
same,Growth percent MDA-MB-231/ATCC,[36]; [59],48.66%
same,GI50,"[36]; Homo sapiens, MDA-MB-231/ATCC, five dose",10.1 µM
same,CC50,"[36]; Homo sapiens, MDA-MB-231/ATCC, five dose, read-out: LC50 (the source's name)",> 100 µM
same,TGI,"[36]; MDA-MB-231/ATCC, five dose",65.5 µM
same,Growth percent T-47D,[37],38.28%
same,GI50,"[38]; 60 cell, MDA-MB-486, five dose",0.04 µM
same,CC50,"[38]; 60 cell, MDA-MB-486, five dose, read-out: LC50 (the source's name)",> 100 µM
same,Growth percent MDA-MB-486,[38]; [59],26.29%
same,TGI,"[38]; MDA-MB-486, five dose",>100 µM
same,GI50,"[39]; 60 cell, mean over panel, five dose",28.8 µM
same,CC50,"[39]; 60 cell, mean over panel, five dose, read-out: LC50, Mean",100 µM
same,"Growth percent, Delta","[39]; delta over the cell panel, 10^−5 molar, 48 hours, SRB",66.04%
same,"TGI, Mean","[39]; mean over panel, five dose",83.18 µM
same,"Growth percent, Mean","[39]; mean over the cell panel, 10^−5 molar, 48 hours, SRB",65.97%
same,"Growth percent, Range","[39]; range over the cell panel, 10^−5 molar, 48 hours, SRB",103.40%
